Results published in ChEMBL document CHEMBL1201862, “PubChem BioAssay data set” (2004).
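Values below derive from 48-hour exposures of cells grown in 96-well plates, with endpoints linearly interpolated between the two concentrations bracketing the appropriate inhibition level. Abbreviation: GI50, concentration required for 50% inhibition of growth.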 Activity calls are given as the source filed them. Rule as the data show it: active = GI50 up to about 1.1 µM and inactive = higher.

How the values were obtained:
Assay in all cases: DTP human tumour cell line panel, 48 h
[1] = tested on: PC-3
[2] = tested on: ACHN
[3] = tested on: CAKI-1
[4] = tested on: DU-145
[5] = tested on: SNB-19
[6] = tested on: SNB-75
[7] = tested on: MDA-MB-435
[8] = tested on: SK-OV-3
[9] = tested on: SK-MEL-28
[10] = tested on: UACC-62
[11] = tested on: NCI-H23
[12] = tested on: BT-549
[13] = tested on: MDA-N
[14] = tested on: SF-268
[15] = tested on: NCI/ADR-RES
[16] = tested on: UO-31
[17] = tested on: OVCAR-4
[18] = tested on: OVCAR-8
[19] = tested on: K562
[20] = tested on: TK-10
[21] = tested on: Malme-3M
[22] = tested on: MDA-MB-231
[23] = tested on: SK-MEL-2
[24] = tested on: A498
[25] = tested on: RXF 393
[26] = tested on: SN12C
[27] = tested on: MCF7
[28] = tested on: HOP-62
[29] = tested on: M14
[30] = tested on: HL-60
[31] = tested on: SF-295
[32] = tested on: Hs-578T
[33] = tested on: OVCAR-5
[34] = tested on: HCC 2998
[35] = tested on: SK-MEL-5
[36] = tested on: SW-620
[37] = tested on: NCI-H460
[38] = tested on: SF-539
[39] = tested on: IGROV-1
[40] = tested on: HT-29
[41] = tested on: LOX IMVI
[42] = tested on: A549
[43] = tested on: HCT-15
[44] = tested on: KM12
[45] = tested on: NCI-H226
[46] = tested on: T47D
[47] = tested on: EKVX
[48] = tested on: NCI-H522
[49] = tested on: RPMI-8226
[50] = tested on: OVCAR-3
[51] = tested on: HOP-92
[52] = tested on: COLO 205
[53] = tested on: HCT-116
[54] = tested on: UACC-257
[55] = tested on: CCRF-CEM
[56] = tested on: U-251
[57] = tested on: MOLT-4
[58] = tested on: SR
[59] = tested on: 786-0

COc1cc(C2S/C(=C/c3ccccc3)C(=O)N2c2ccc([N+](=O)[O-])cc2)cc(OC)c1OC (centres undefined) was tested, and the GI50 [1] was > 100 µM (inactive), the GI50 [2] was > 21 µM (inactive) and the GI50 [3] was 97.1 µM (inactive). The GI50 [4] was > 41.2 µM (inactive), the GI50 [5] was > 100 µM (inactive) and the GI50 [6] was > 100 µM (inactive). For the same compound, the GI50 [7] was 18 µM (inactive), the GI50 [8] was > 100 µM (inactive) and the GI50 [9] was > 100 µM (inactive). The GI50 [10] was 3.91 µM (inactive), the GI50 [11] was > 100 µM (inactive) and the GI50 [12] was 44.9 µM (inactive). The GI50 [13] was > 56.8 µM (inactive), the GI50 [14] was > 83.9 µM (inactive) and the GI50 [15] was > 80.4 µM (inactive). For the same compound, the GI50 [16] was 47 µM (inactive), the GI50 [17] was 45.9 µM (inactive) and the GI50 [18] was > 100 µM (inactive). The GI50 [19] was 3.68 µM (inactive), the GI50 [20] was > 100 µM (inactive) and the GI50 [21] was > 100 µM (inactive). The GI50 [22] was > 100 µM (inactive), the GI50 [23] was > 91.4 µM (inactive) and the GI50 [24] was 73.1 µM (inactive). For the same compound, the GI50 [25] was > 100 µM (inactive), the GI50 [26] was > 90.6 µM (inactive) and the GI50 [27] was 58.3 µM (inactive). The GI50 [28] was 92.7 µM (inactive), the GI50 [29] was 26.1 µM (inactive) and the GI50 [30] was 40.6 µM (inactive). The GI50 [31] was 58.1 µM (inactive), the GI50 [32] was > 100 µM (inactive) and the GI50 [33] was 15.5 µM (inactive). For the same compound, the GI50 [34] was > 100 µM (inactive), the GI50 [35] was 25.6 µM (inactive) and the GI50 [36] was > 100 µM (inactive). For the same compound, the GI50 [37] was 48 µM (inactive), the GI50 [38] was > 100 µM (inactive) and the GI50 [39] was > 20.6 µM (inactive). The GI50 [40] was > 39.6 µM (inactive), the GI50 [41] was 19 µM (inactive) and the GI50 [42] was > 96.4 µM (inactive). For the same compound, the GI50 [43] was 26.4 µM, the GI50 [44] was 28.6 µM (inactive) and the GI50 [45] was 58.9 µM (inactive). For the same compound, the GI50 [46] was 40.9 µM (inactive), the GI50 [47] was 39.6 µM (inactive) and the GI50 [48] was > 63.5 µM (inactive). The GI50 [49] was > 57.7 µM (inactive), the GI50 [50] was > 78 µM (inactive) and the GI50 [51] was > 100 µM (inactive). The GI50 [52] was 26.1 µM (inactive), the GI50 [53] was > 64.9 µM (inactive) and the GI50 [54] was 60.7 µM (inactive). For the same compound, the GI50 [55] was 32.6 µM (inactive), the GI50 [56] was > 100 µM (inactive) and the GI50 [57] was 47.3 µM (inactive). The GI50 [58] was 9.27 µM (inactive) and the GI50 [59] was > 100 µM (inactive).
